Measurements published in US7018623B2, “B complex vitamin compositions that protect against cellular damage caused by ultraviolet light” (priority 2001, dated 2006).

How the values were obtained:
[1] = human, topical application; cited from earlier work
[2] = system: human volunteers exposed to direct sunlight; assay: Oral self-administration of B vitamins by human subjects, sunburning on continuous exposure to sunlight; assay type: in vivo; details: for expected sunburning effects of continuous sun exposure: one patient, a year and a half, oral, B12 300–500 mcg/day, folic acid 2–5 mg/day, or both with niacinamide 200–500 mg/day
Method: 1. Over the period of four weeks a white middle aged couple in their forties on holiday in Mexico self administered 400–600 mcg vitamin B12/day in the form of 100 mcg tablets.
2. Over the period of a year and a half a […] self-administered vitamin B12 alone at 300 mcg to 500 mcg/day in the form of 100 mcg tablets, folic acid alone in the form of folic acid alone at 2 mg–5 mg/day in the form of 1 mg tablets or a combination of both vitamins in the same dose range taken with niacinamide 200 mg–500 mg/day in the form of 100 mg tablets. […] Normal burning rates returned within 24 hrs of the cessation of oral administration of the various formulations.
3. […] The published UVB index gave an expected time of continuous exposure to sunlight in the Edmonton AB area of 45 minutes. The maximum SPF (skin protection factor) was computed to be approximately 330/45=7.3.
5. These experiments have been repeated with approximately twenty human volunteers of various skin types ranging in age from 25 to 35 years. Most were female, one was a qualified physician, and many were qualified nurses or other healthcare professionals trained in observing symptoms of skin burning. Over the past year, a variety of different combinations of the three B complex vitamins were tested by exposure of these individuals to direct sunlight in locales such as Alberta Canada, Kelowna Canada, Mexico, Montego Bay Jamaica, San Diego Calif., Phoenix Ariz., Los Angeles Calif., and Honolulu, Hi. either in the course of their work or on vacation. The subjects had various skin types and were of many different nationalities.

Molecule	systemic absorption and urinary excretion after application to the skin [1]	rate of sunburning when exposed continuously to sunlight ([2]; 400–600 mcg/day oral, four weeks, couple in Mexico, versus past experience and versus not taking the supplement)	expected sunburning effects of continuous sun exposure [2]
COc1ccc(C(=O)c2ccccc2)c(O)c1 [oxybenzone]	absorbed systemically and excreted in human urine soon after application to the skin		
vitamin B12		significant reduction in the rate of sunburning	some amelioration of the expected sunburning effects
Nc1nc2ncc(CNc3ccc(C(=O)N[C@@H](CCC(=O)O)C(=O)O)cc3)nc2c(=O)[nH]1 [folic acid]			some amelioration of the expected sunburning effects
